Measurements taken from US5106863A, “Substituted imidazole and pyridine derivatives” (Ortho Pharmaceutical Corporation, priority 1990, dated 1992).
Structures can show the parent of a compound that is named as a salt. Where two headings read alike, the source gives them in different places.

Key:
[1] = system: stimulated parietal cells; assay: Isolated Parietal Cell Assay: inhibition of 14C-aminopyrine accumulation in stimulated parietal cells; format: cell-based, rabbit; details: 37° C.
Description: Isolated Parietal Cell Assay Using the procedures described in Batzri, S. et al., Biochemica et Biophysica Acta 508, 328 (1978), and Soll, H., Am. J. Physiol. 238, […] (1980), the example compounds were tested for their ability to inhibit ^14 C-aminopyrine accumulation in stimulated parietal cells. Parietal cells were isolated from the fundic mucosa of rabbit stomachs by a four-stage collagenese digestion process. The supernatant fraction from the last two stages of this process contain the individual parietal cells. This cell suspension was centrifuged and reconstituted in a modified Hank's buffer to contain 1-2×10^6 cells/ml. […] […] […] The flasks were incubated in a shaking water bath at 37° C. and gassed with 95% O2, 5% CO2 for 20 minutes. Three aliquots were then taken from each flask, and cell pellets were collected by centrifugation. The pellets were then solubilized with Protosol (NEN) and the radioactivity determined by liquid scintillation spectrometry.

H^+ /K^+ ATPase = target: T1, H^+ /K^+ ATPase (Oryctolagus cuniculus, UniProt P27112); assay: Isolated H^+ /K^+ ATPase Assay: inhibition of K+ stimulated response in vesicular membranes from rabbit gastric mucosa; format: biochemical; details: 10 min preincubation, 15 min at 37° C.
T1 construct: microsomes prepared from a crude homogenate of rabbit gastric mucosa using differential centrifugation; from tissue; host or cells: rabbit gastric mucosa (microsomes, vesicular membranes)
T1 sequence (P27112 2-1035 limits assumed): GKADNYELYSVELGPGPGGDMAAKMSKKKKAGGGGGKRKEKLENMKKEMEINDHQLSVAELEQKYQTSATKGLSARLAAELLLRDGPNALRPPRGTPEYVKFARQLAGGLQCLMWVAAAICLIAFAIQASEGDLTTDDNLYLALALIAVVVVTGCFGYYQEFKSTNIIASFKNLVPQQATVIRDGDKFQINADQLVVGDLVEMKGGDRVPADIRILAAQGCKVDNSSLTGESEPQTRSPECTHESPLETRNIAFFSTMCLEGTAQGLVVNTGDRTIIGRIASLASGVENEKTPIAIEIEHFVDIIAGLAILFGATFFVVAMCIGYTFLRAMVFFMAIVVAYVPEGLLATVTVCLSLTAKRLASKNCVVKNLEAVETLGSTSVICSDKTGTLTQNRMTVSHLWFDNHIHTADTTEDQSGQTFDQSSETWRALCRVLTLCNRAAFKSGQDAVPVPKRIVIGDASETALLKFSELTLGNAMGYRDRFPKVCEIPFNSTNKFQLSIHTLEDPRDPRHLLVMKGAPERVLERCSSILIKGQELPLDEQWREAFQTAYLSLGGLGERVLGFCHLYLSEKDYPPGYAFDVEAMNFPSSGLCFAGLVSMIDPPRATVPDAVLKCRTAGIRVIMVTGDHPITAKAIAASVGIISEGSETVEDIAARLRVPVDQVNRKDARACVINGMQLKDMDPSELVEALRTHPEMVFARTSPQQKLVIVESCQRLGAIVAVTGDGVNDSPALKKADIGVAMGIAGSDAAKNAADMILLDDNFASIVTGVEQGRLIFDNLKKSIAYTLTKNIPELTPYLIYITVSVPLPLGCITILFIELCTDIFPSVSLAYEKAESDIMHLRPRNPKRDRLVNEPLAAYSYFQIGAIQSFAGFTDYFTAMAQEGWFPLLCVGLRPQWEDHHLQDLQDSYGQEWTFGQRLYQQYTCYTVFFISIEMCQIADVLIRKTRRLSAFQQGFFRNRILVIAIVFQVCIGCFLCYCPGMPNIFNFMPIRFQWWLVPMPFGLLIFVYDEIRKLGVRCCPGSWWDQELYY
T1 sequence (P18597 whole entry partner): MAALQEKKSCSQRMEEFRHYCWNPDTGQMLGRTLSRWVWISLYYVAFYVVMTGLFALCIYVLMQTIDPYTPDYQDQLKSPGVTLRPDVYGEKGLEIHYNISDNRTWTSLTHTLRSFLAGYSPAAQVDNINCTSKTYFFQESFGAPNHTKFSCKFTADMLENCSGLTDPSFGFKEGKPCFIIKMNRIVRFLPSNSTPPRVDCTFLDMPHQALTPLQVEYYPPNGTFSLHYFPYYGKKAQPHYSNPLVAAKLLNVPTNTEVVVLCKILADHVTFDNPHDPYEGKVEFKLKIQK
Description: Isolated H^+ /K^+ ATPase Assay
Using the procedures described in Eibl, H. et al., Analytical Biochemistry 30, 51 (1969), Ganser, A. L. et al., Biochem. Biophys. Acta 307, 169 (1973), and Beil, W. et al., Br. J. Pharmac. 82, 651 (1984), the example compounds were tested for their ability to inhibit the H^+ /K^+ ATPase enzyme in the vesicular membranes from rabbit gastric mucosa. The H^+ /K^+ ATPase enzyme activity is present in microsomes prepared from a crude homogenate of rabbit gastric mucosa using differential centrifugation.
Assays were conducted in duplicate tubes in a 1 mL reaction volume consisting of 50 mM Tris buffer, 2mM MgCl2, ±10 mM KCl, 10 μl of example compound in dimethylsulfoxide and 20-30 μg of protein. The tubes were preincubated for 10 minutes in a 37° C. shaking water bath before the substrate, (Na2 ATP) was added. The mixture was then incubated for 15 minutes at 37° C. The reaction was stopped with 1 mL of 14% TCA and the tubes were centrifuged at 2000 rpm for 10 minutes.
The amount of inorganic phosphate (Pi) present in each sample was compared to a potassium phosphate standard curve.

[2] = Oryctolagus cuniculus, 20 min, DcAMP, read-out: Antisecretory Activity in Parietal Cell Assay, DcAMP (IC50)
[3] = Oryctolagus cuniculus, 20 min, HI, histamine-stimulated, read-out: Antisecretory Activity in Parietal Cell Assay, HI (IC50)

## CC(C)=CCC/C(C)=C\CSc1nc2ccccc2n1C/C=C(/C)CCC=C(C)C [Example 10, 1-(3,7-Dimethyl-2,6(Z)-octadienyl)-2-[(3,7-dimethyl-2,6(Z)-octadienyl)-thio]-1H-1,3-benzimidazole Monooxalate]
[1]; [2]
  IC50: 1100 nM
[1]; [3]
  IC50: 1700 nM

## CC(C)=CCC/C(C)=C/CSc1nc2ccccc2[nH]1 [Example 1, 2-[(3,7-Dimethyl-2,6(E)-octadienyl)-thio]-1H-1,3-benzimidazole]
[1]; [2]
  IC50: 2150 nM
[1]; [3]
  IC50: 1300 nM

## CC(C)=CCCC(C)CC[S+]([O-])c1nc2ccccc2[nH]1 (single isomer, unassigned; (+)) [Example 8, (+)-2-[(3,7-Dimethyl-6-octen-1-yl)sulfinyl]-1H-1,3-benzimidazole Monooxalate]
H^+ /K^+ ATPase
  IC50: 72000 nM
[1]; [2]
  IC50: 33300 nM
[1]; [3]
  IC50: 40000 nM

## COc1ccc2[nH]c(SC/C=C(\C)CCC=C(C)C)nc2c1 [Example 4, 2-[(3,7-Dimethyl-2,6(E)-octadienyl)thio]-5-methoxy-1H-1,3-benzimidazole Monooxalate]
[1]; [2]
  IC50: 2100 nM
[1]; [3]
  IC50: 700 nM

## CC(C)=CCC/C(C)=C/CSCc1ccccn1 [Example 15, 2-[3,7-Dimethyl-2,6(E)octadienylthiomethyl]pyridine.1/10 Hydrate]
H^+ /K^+ ATPase
  IC50: 9600 nM
[1]; [2]
  IC50: 2900 nM
[1]; [3]
  IC50: 2400 nM

## CCCCCCCCSc1nc2cc(Cl)ccc2[nH]1 [Example 14, 5-Chloro-2-octylthio-1H-1,3-benzimidazole]
[1]; [3]
  IC50: 2400 nM

## CCCCCCCCSc1nc2cc(OC)ccc2[nH]1 [Example 13, 5-Methoxy-2-octylthio-1H-1,3-benzimidazole Hemioxalate Monohydrate]
[1]; [3]
  IC50: 1300 nM

## 5 (and 6)-Chloro-2-methyl-1-(3,7-dimethyl-2,6(E)-octadienyl)-1H-1,3-benzimidazoleMonohydrochloride.1/4H2 O [Example 20]
H^+ /K^+ ATPase
  IC50: 10000 nM
[1]; DcAMP, 20 minutes, read-out: Antisecretory Activity in Parietal Cell Assay, DcAMP (IC50)
  IC50: 1600 nM
[1]; HI, histamine-stimulated, 20 minutes, read-out: Antisecretory Activity in Parietal Cell Assay, HI (IC50)
  IC50: 430 nM

## CCCCCCCCSc1nc2ccccc2[nH]1 [Example 12, 2-Octylthio-1H-1,3-benzimidazole]
[1]; [2]
  IC50: 1000 nM
[1]; [3]
  IC50: 1900 nM

## CC(C)=CCC/C(C)=C/Cn1c(CO)nc2ccccc21 [Example 19, 1-[3,7-Dimethyl-2,6(E)-octadienyl]-2-hydroxymethyl-1H-1,3-benzimidazole Hydrochloride.1/4H2 O]
H^+ /K^+ ATPase
  IC50: 15000 nM
[1]; [2]
  IC50: 3300 nM
[1]; [3]
  IC50: 2000 nM

## CC(C)=CCC/C(C)=C/CSc1nc2cc(F)c(Cl)cc2[nH]1 [Example 3, 6-Chloro-5-fluoro-2-[(3,7-dimethyl-2,6(E)-octadienyl)thio]-1H-1,3-benzimidazole.1/4Hydrate]
H^+ /K^+ ATPase
  IC50: 5600 nM
[1]; [2]
  IC50: 2300 nM
[1]; [3]
  IC50: 3100 nM

## CC(C)=CCC[C@H](C)CCSc1nccn1C [Example 17, 3S-2-[(3,7-Dimethyl-6-octen-1-yl)thio]-1-methylimidazole]
[1]; [2]
  IC50: 1100 nM
[1]; [3]
  IC50: 1700 nM

## COc1c(C)cnc(Cn2c(SCC[C@@H](C)CCC=C(C)C)nc3ccccc32)c1C [Example 9, 1-(3,5-Dimethyl-4-methoxy-2-pyridylmethyl)-2-[(3,7-dimethyl-6-octen-1-yl)thio]-1H-1,3-benzimidazole Monooxalate]
H^+ /K^+ ATPase
  IC50: 3000 nM
[1]; [2]
  IC50: 1250 nM
[1]; [3]
  IC50: 2000 nM

## COc1ccc2ncn(C/C=C(\C)CCC=C(C)C)c2c1 [Example 18, 1-(3,7-Dimethyl-2,6(E)-octadienyl)-6-methoxy-1H-1,3-benzimidazole Monooxalate]
H^+ /K^+ ATPase
  IC50: 28000 nM
[1]; [2]
  IC50: 860 nM
[1]; [3]
  IC50: 800 nM

## CC(C)=CCC[C@H](C)CCSc1nc2ccccc2[nH]1 [Example 7, 3S(+)-2-[(3,7-Dimethyl-6-octen-1-yl)thio]-1H-1,3-benzimidazole]
[1]; [2]
  IC50: 2200 nM
[1]; [3]
  IC50: 2200 nM

## COc1c(C)cnc(Cn2c(SC/C=C(\C)CCC=C(C)C)nc3ccccc32)c1C [Example 5, 1-(3,5-Dimethyl-4-methoxy-2-pyridylmethyl)-2-[(3,7-dimethyl-2,6(E)-octadienyl)thio]-1H-1,3-benzimidazole Monooxalate Hemihydrate]
H^+ /K^+ ATPase
  IC50: 3200 nM
[1]; [2]
  IC50: 19000 nM
[1]; [3]
  IC50: 4000 nM

## CSc1ccc(-c2nc3ccccc3n2C/C=C(\C)CCC=C(C)C)cc1 [Example 21, 1-(3,7-Dimethyl-2,6(E)-octadienyl)-2-(4-methylthiophenyl)-1H-1,3-benzimidazole Monooxalate.H2 O]
H^+ /K^+ ATPase
  IC50: 860 nM
[1]; [2]
  IC50: 3000 nM
[1]; [3]
  IC50: 40000 nM

## CC(C)=CCC/C(C)=C\CSc1nc2ccccc2[nH]1 [Example 11, 2-[(3,7-Dimethyl-2,6(Z)-octadienyl)-thio]-1H-1,3-benzimidazole.1/4Hydrate]
[1]; [2]
  IC50: 3100 nM
[1]; [3]
  IC50: 2800 nM

## CC(C)=CCC/C(C)=C/CSc1nc2cc(Cl)ccc2[nH]1 [Example 2, 5-Chloro-2-[(3,7-dimethyl-2,6(E)-octadienyl)-thio]-1H-1,3-benzimidazole]
H^+ /K^+ ATPase
  IC50: 5000 nM
[1]; [2]
  IC50: 3500 nM
[1]; [3]
  IC50: 2300 nM

## CC(C)=CCC/C(C)=C/CSc1nc2cc(C(F)(F)F)ccc2[nH]1 [Example 6, 5-Trifluoromethyl-2-[(3,7-dimethyl-2,6(E)-octadienyl)thio]-1H-1,3-benzimidazole]
[1]; [2]
  IC50: 510 nM
[1]; [3]
  IC50: 460 nM
